Molecular target: GST tagged truncated human mutant G2019S LRRK2 (Homo sapiens (Human), UniProt Q5S007, G2019S)
Assay: LRRK2 Km ATP LanthaScreen Assay
Format: biochemical
Details: 134 μM ATP (Km ATP), LRRKtide substrate, negative log of mean IC50 (molar)
Protocol: Unless otherwise noted, all reactions are magnetically stirred. Unless otherwise noted, when diethyl ether is used in the experiments described below, it is Fisher ACS certified material and is stabilized with BHT. Unless otherwise noted, “concentrated” and/or “solvent removed under reduced pressure” means evaporating the solvent from a solution or mixture using a rotary evaporator or vacuum pump. Unless otherwise noted, flash chromatography is carried out on a Teledyne Isco (Lincoln, NE), Analogix (Burlington, WI), or Biotage (Stockholm, SWE) automated chromatography system using a commercially available cartridge as the column. Columns may be purchased from Teledyne Isco, Analogix, Biotage, Varian (Palo Alto, CA), or Supelco (Bellefonte, PA) and are usually filled with silica gel as the stationary phase. Reversed phase preparative HPLC conditions, where used, can be found at the end of each experimental section. Aqueous solutions were concentrated on a Genevac (Ipswich, ENG) or by freeze-drying/lyophilization. Unless otherwise noted, all LRRK2 pIC50 data presented in tables refers to the LRRK2 G2019S Km ATP LanthaScreen™ assay (Life Technologies Corp., Carlsbad, CA) that is described in the Biological Assay section.
Biological Assay: LRRK2 Km ATP LanthaScreen™ Assay
Compound potency against LRRK2 kinase activity was determined using LanthaScreen™ technology from Life Technologies Corporation (Carlsbad, CA) using a GST20 tagged truncated human mutant G2019S LRRK2 in the presence of the fluorescein-labeled peptide substrate LRRKtide® (LRRK2 phosphorylated ezrin/radixin/moesin (ERM)), also from Life Technologies. The data presented for the Km ATP LanthaScreen™ Assay represents mean IC50 values based on several test results and may have reasonable deviations depending on the specific conditions and reagents used. Km is the Michaelis constant of an enzyme and is defined as the concentration of native substrate (ATP for a kinase) which permits the enzyme to achieve half Vmax (Vmax=rate of reaction when the enzyme is saturated with substrate). IC50 (half-maximal inhibitory concentration) represents the concentration of inhibitor required to inhibit LRRK2 kinase activity by 50%. Assays were performed in the presence of 134 μM ATP (Km ATP). Upon completion, the assay was stopped, and phosphorylated substrate detected with a terbium (Tb)-labeled anti-pERM antibody (cat. no. PV4898). The compound dose response was prepared by diluting a 10 mM stock of compound to a maximum concentration of 9.99 μM in 100% DMSO, followed by custom fold serial dilution in DMSO nine times. 20 nL of each dilution was spotted via a Labcyte Echo onto a 384-well black-sided plate (Corning 3575) followed by 15 μL of a 1.25 nM enzyme solution in 1× assay buffer (50 mM Tris pH 8.5, 10 mM MgCl2, 0.01% Brij-35, 1 mM EGTA, 2 mM dithiothreitol, 0.05 mM sodium orthovanadate). Following a 15-min incubation period at rt, the kinase reaction was started with the addition of 5 μL of 400 nM fluorescein-labeled LRRKtide® (LRRK2 phosphorylated ezrin/radixin/moesin (ERM)) peptide substrate and 134 μM ATP solution in 1× assay buffer. The reaction was allowed to progress at ambient temperature for 90 min. The reaction was then stopped by the addition of 20 μL of TR-FRET Dilution Buffer (Life Technologies, Carlsbad, CA) containing 2 nM Tb-labeled anti-phospho LRRKtide® (LRRK2 phosphorylated ezrin/radixin/moesin (ERM)) antibody and 10 mM EDTA (Life Technologies, Carlsbad, CA). After an incubation period of 1 h at rt, the plate was read on an EnVision® multimode plate reader (Perkin Elmer, Waltham, MA) with an excitation wavelength of 337 nm (Laser) and a reading emission at both 520 and 495 nm. Compound IC50 values were interpolated from nonlinear regression best-fits of the log of the final compound concentration, plotted as a function of the 520/495-nm emission ratio using activity base “Abase”). Abase uses a 4 parameter (4P) logistic fit based on the Levenberg-Marquardt algorithm. […]

GST tagged truncated human mutant G2019S LRRK2, sequence (Q5S007 970-2527 G2019S): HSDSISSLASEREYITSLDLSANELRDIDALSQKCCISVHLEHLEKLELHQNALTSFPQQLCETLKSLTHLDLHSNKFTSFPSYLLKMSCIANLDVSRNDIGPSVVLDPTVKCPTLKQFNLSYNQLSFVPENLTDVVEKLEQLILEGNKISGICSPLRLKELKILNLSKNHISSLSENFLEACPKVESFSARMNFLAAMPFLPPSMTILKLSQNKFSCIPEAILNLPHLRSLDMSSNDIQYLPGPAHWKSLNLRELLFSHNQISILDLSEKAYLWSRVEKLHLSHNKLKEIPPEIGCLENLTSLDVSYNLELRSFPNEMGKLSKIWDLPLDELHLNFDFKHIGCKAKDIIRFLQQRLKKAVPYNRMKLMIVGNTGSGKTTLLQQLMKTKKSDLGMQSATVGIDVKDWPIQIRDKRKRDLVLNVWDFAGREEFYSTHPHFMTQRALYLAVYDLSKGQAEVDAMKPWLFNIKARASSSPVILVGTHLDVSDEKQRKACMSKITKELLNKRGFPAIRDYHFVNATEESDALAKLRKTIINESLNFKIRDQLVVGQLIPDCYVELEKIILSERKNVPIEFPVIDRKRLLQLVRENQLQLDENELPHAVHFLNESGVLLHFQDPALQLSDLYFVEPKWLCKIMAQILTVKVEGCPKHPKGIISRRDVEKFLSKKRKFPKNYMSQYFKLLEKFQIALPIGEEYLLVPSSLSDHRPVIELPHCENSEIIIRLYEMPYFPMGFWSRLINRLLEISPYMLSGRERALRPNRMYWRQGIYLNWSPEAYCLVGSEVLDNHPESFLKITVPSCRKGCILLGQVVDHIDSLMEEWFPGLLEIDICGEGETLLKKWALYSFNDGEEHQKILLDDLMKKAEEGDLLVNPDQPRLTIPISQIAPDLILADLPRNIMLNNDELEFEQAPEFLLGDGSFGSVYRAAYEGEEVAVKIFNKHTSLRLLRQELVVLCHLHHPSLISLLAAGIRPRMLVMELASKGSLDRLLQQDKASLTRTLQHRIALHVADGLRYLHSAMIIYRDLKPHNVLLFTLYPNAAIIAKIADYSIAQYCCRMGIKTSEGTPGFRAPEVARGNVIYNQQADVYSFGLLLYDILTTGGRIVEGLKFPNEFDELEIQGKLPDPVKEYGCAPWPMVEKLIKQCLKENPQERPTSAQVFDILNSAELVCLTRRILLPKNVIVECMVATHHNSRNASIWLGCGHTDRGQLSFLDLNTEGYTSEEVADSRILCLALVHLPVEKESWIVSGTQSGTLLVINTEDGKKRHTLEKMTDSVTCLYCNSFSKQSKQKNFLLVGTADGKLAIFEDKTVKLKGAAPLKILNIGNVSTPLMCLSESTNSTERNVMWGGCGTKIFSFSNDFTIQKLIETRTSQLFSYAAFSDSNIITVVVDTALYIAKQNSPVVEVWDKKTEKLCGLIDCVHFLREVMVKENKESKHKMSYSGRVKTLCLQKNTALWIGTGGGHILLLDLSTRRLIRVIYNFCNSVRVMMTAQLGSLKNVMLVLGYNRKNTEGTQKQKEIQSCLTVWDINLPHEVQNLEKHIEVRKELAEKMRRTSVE

How did the “LRRK2 pIC50” value turn out when `O=C(Nc1cnn(CC2CC(F)(F)C2)c1)c1csc(-c2cn[nH]c2)n1` [Example 1-35, N-{1-[(3,3-difluorocyclobu-tyl)methyl]-1H-pyrazol-4-yl}-2-(1H-pyrazol-4-yl)-1,3-thiazole-4-carboxamide] was run?
Its value is 7.77.

How did the “LRRK2 pIC50” value turn out when `CN(C)C(=O)c1nn(C)cc1NC(=O)c1csc(-c2cn[nH]c2)n1` [Example 1-36, N-[3-(dimethylcarba-moyl)-1-methyl-1H-pyrazol-4-yl]-2-(1H-pyrazol-4-yl)-1,3-thiazole-4-carboxamide] was run?
The value was 7.25.

For `COc1nn(C2CC2)cc1NC(=O)c1csc(-c2cn[nH]c2)n1` [Example 1-37, N-(1-cyclopropyl-3-methoxy-1H-pyrazol-4-yl)-2-(1H-pyrazol-4-yl)-1,3-thiazole-4-carboxamide], which “LRRK2 pIC50” value is on record?
The value was 7.51.

How did the “LRRK2 pIC50” value turn out when `O=C(Nc1cn(C2CC2)nc1C(F)F)c1csc(-c2cn[nH]c2)n1` [Example 1-38, N-[1-cyclopropyl-3-(difluoromethyl)-1H-pyrazol-4-yl]-2-(1H-pyrazol-4-yl)-1,3-thiazole-4-carboxamide] was run?
The value was 8.23.

For `CC(C)n1cc(NC(=O)c2coc(-c3cn[nH]c3)n2)cn1` [Example 1-39, N-[1-(1-methylethyl)-1H-pyrazol-4-yl]-2-(1H-pyrazol-4-yl)-1,3-oxazole-4-carboxamide], which “LRRK2 pIC50” value is on record?
The value was 6.36.

For `Cn1cc(NC(=O)c2csc(-c3cn[nH]c3)n2)c(C(F)(F)F)n1` [Example 1-40, N-[1-methyl-3-(trifluoromethyl)-1H-pyrazol-4-yl]-2-(1H-pyrazol-4-yl)-1,3-thiazole-4-carboxamide], which “LRRK2 pIC50” value is on record?
The value was 7.10.

Which “LRRK2 pIC50” value does the source give for `Cc1nn(C)cc1NC(=O)c1csc(-c2cn[nH]c2)n1` [Example 1-41, N-(1,3-dimethyl-1H-pyrazol-4-yl)-2-(1H-pyrazol-4-yl)-1,3-thiazole-4-carboxamide] here?
The value was 7.23.

`Cn1cc(NC(=O)c2csc(-c3cn[nH]c3)n2)c(C2CC2)n1` [Example 1-42, N-(3-cyclopropyl-1-methyl-1H-pyrazol-4-yl)-2-(1H-pyrazol-4-yl)-1,3-thiazole-4-carboxamide] was tested. Which “LRRK2 pIC50” value did it give?
Its value is 7.74.

With `O=C(Nc1cnn(CC2(F)CCC2)c1)c1csc(-c2cn[nH]c2)n1` [Example 1-43, N-{1-[(1-fluorocyclobutyl)methyl]-1H-pyrazol-4-yl}-2-(1H-pyrazol-4-yl)-1,3-thiazole-4-carboxamide] as the molecule, how does the “LRRK2 pIC50” value read?
Its value is 7.64.

How did the “LRRK2 pIC50” value turn out when `CS(=O)(=O)CC1(Cn2cc(NC(=O)c3csc(-c4cn[nH]c4)n3)cn2)CCC1` [Example 1-44, N-[1-({1-[(methylsulfonyl)methyl]cyclobutyl}methyl)-1H-pyrazol-4-yl]-2-(1H-pyrazol-4-yl)-1,3-thiazole-4-carboxamide] was run?
Its value is 7.91.

Which “LRRK2 pIC50” value does the source give for `O=C(Nc1cnn(Cc2ccc(F)cc2)c1)c1coc(-c2cn[nH]c2)n1` [Example 1-45, N-[1-(4-fluorobenzyl)-1H-pyrazol-4-yl]-2-(1H-pyrazol-4-yl)-1,3-oxazole-4-carboxamide] here?
The value was 6.77.

How did the “LRRK2 pIC50” value turn out when `CC(C)n1cc(NC(=O)c2csc(-c3cn[nH]c3)n2)c(OCC(F)F)n1` [Example 1-46, N-[3-(2,2-difluoroethoxy)-1-(1-methylethyl)-1H-pyrazol-4-yl]-2-(1H-pyrazol-4-yl)-1,3-thiazole-4-carboxamide] was run?
The value was 7.57.

Which “LRRK2 pIC50” value does the source give for `CC(C1CC1)n1cc(NC(=O)c2csc(-c3cn[nH]c3)n2)c(C(F)F)n1` (centres unmarked) [Example 3-1, N-(1-(1-Cyclopropylethyl)-3-(difluoromethyl)-1H-pyrazol-4-yl)-2-(1H-pyrazol-4-yl)thiazole-4-carboxamide] here?
Its value is 7.27.

For `O=C(Nc1cn(C2CCC2)nc1C1CC1)c1csc(-c2cn[nH]c2)n1` [Example 3-2, N-(1-cyclobutyl-3-cyclopropyl-1H-pyrazol-4-yl)-2-(1H-pyrazol-4-yl)-1,3-thiazole-4-carboxamide], which “LRRK2 pIC50” value is on record?
Its value is 8.35.

With `O=C(Nc1cnn(C2CCC2)c1C1CC1)c1csc(-c2cn[nH]c2)n1` [Example 3-3, N-(1-cyclobutyl-5-cyclopropyl-1H-pyrazol-4-yl)-2-(1H-pyrazol-4-yl)-1,3-thiazole-4-carboxamide] as the molecule, how does the “LRRK2 pIC50” value read?
Its value is 7.16.

How did the “LRRK2 pIC50” value turn out when `O=C(Nc1cnn(C2CC2)c1)c1cccc(-c2cnn(CC(F)(F)F)c2)n1` [Example 4-1, N-(1-Cyclopropyl-1H-pyrazol-4-yl)-6-(1-(2,2,2-trifluoroethyl)-1H-pyrazol-4-yl)picolinamide] was run?
Its value is 7.98.

How did the “LRRK2 pIC50” value turn out when `Cc1nc(C(=O)Nc2cnn(C3CCC3)c2)ccc1C#N` [Example 4-2, 5-cyano-N-(1-cyclobutyl-1H-pyrazol-4-yl)-6-methylpyridine-2-carboxamide] was run?
Its value is 5.07.

For `CC(C)Nc1nc(C(=O)Nc2cnn(C3CCC3)c2)cs1` [Example 4-3, N-(1-cyclobutyl-1H-pyrazol-4-yl)-2-[(1-methylethyl)amino]-1,3-thiazole-4-carboxamide], which “LRRK2 pIC50” value is on record?
Its value is 6.19.

For `O=C(Nc1cnn(C2CCC2)c1)c1coc(-c2ccccc2)n1` [Example 4-4, N-(1-cyclobutyl-1H-pyrazol-4-yl)-2-phenyl-1,3-oxazole-4-carboxamide], which “LRRK2 pIC50” value is on record?
The value was 5.68.

With `CSc1nc(C(=O)Nc2cnn(C3CCC3)c2)cs1` [Example 4-5, N-(1-cyclobutyl-1H-pyrazol-4-yl)-2-(methylsulfanyl)-1,3-thiazole-4-carboxamide] as the molecule, how does the “LRRK2 pIC50” value read?
The value was 5.82.

How did the “LRRK2 pIC50” value turn out when `CC(C)Oc1cccc(C(=O)Nc2cnn(C3CCC3)c2)n1` [Example 4-6, N-(1-cyclobutyl-1H-pyrazol-4-yl)-6-(1-methylethoxy) pyridine-2-carboxamide] was run?
The value was 7.10.

With `O=C(Nc1cnn(C2CCC2)c1)c1ccn(-c2ccccc2)n1` [Example 4-7, N-(1-cyclobutyl-1H-pyrazol-4-yl)-1-phenyl-1H-pyrazole-3-carboxamide] as the molecule, how does the “LRRK2 pIC50” value read?
The value was 5.56.

`CC(=O)Nc1cccc(C(=O)Nc2cnn(C3CCC3)c2)n1` [Example 4-8, 6-(acetylamino)-N-(1-cyclobutyl-1H-pyrazol-4-yl)pyridine-2-carboxamide] was tested. Which “LRRK2 pIC50” value did it give?
The value was 6.33.

Which “LRRK2 pIC50” value does the source give for `O=C(Nc1cnn(C2CCC2)c1)c1csc(-c2ccccc2)n1` [Example 4-9, N-(1-cyclobutyl-1H-pyrazol-4-yl)-2-phenyl-1,3-thiazole-4-carboxamide] here?
The value was 6.70.

Which “LRRK2 pIC50” value does the source give for `COc1cccc(C(=O)Nc2cnn(C3CCC3)c2)n1` [Example 4-10, N-(1-cyclobutyl-1H-pyrazol-4-yl)-6-methoxypyridine-2-carboxamide] here?
The value was 5.35.

Which “LRRK2 pIC50” value does the source give for `O=C(Nc1cnn(C2CCC2)c1)c1ccn(-c2ncccn2)n1` [Example 4-11, N-(1-cyclobutyl-1H-pyrazol-4-yl)-1-pyrimidin-2-yl-1H-pyrazole-3-carboxamide] here?
Its value is 5.71.

How did the “LRRK2 pIC50” value turn out when `CC(=O)Nc1nc(C(=O)Nc2cnn(C3CCC3)c2)cs1` [Example 4-12, 2-(acetylamino)-N-(1-cyclobutyl-1H-pyrazol-4-yl)-1,3-thiazole-4-carboxamide] was run?
Its value is 6.18.

Which “LRRK2 pIC50” value does the source give for `O=C(Nc1cnn(C2CCC2)c1)c1cccc(-n2cccn2)n1` [Example 4-13, N-(1-cyclobutyl-1H-pyrazol-4-yl)-6-(1H-pyrazol-1-yl)pyridine-2-carboxamide] here?
The value was 6.76.

`O=C(Nc1cnn(C2CCC2)c1)c1csc(Nc2ccccc2)n1` [Example 4-14, N-(1-cyclobutyl-1H-pyrazol-4-yl)-2-(phenylamino)-1,3-thiazole-4-carboxamide] was tested. Which “LRRK2 pIC50” value did it give?
The value was 6.12.

— patent publication US20240174679A1, “HETEROAROYL AMIDES AS LRRK2 INHIBITORS, PHARMACEUTICAL COMPOSITIONS, AND USES THEREOF” (MERCK SHARP & DOHME LLC, priority 2021, published 2024)
